According to patent publication US20040067891A1, “Therapeutic and/or preventive agents for diseases due to retinal ischemia” (priority 2000, published 2004):

Tests used:
rats = assay: single-dose oral toxicity in rats; format: in vivo, rat; details: single-dose oral administration to rats
Protocol: The compound represented by the formula (I) or a non-toxic salt thereof has markedly low toxicity so that use of it as a pharmaceutical can be considered as safe enough. For example, the minimum lethal dose of the compound represented by the formula (I) by single-dose oral administration to rats was 2000 mg/kg or more.

[1] = test system: retinal disorders due to transient retinal ischemia; assay: rat model with retinal disorders due to transient retinal ischemia; format: in vivo; details: SD male rats
Protocol: Effects of the compound represented by the formula (I) (which will hereinafter be called “compound of the present invention”) on a rat model with retinal disorders due to transient retinal ischemia;
The model with retinal disorders due to transient retinal ischemia was prepared in accordance with the method described in Eur. J. Pharmaco., 350, 53-57 (1998).
After rats (SD male rats, 9-week-old (purchased from Charles River Japan, Inc.)) were weighed, pentobarbital sodium (Pentbarbital Na) (50-75 mg/kg) was intraperitoneally administered to anesthetize them. They were fixed to a platform, and kept warm at around 37° C. A perfusate for ophthalmic surgery (“BSS PLUS”; product of Santen Pharmaceutical) was hung so that the height from the position of the eyes of the rats would be 170 cm±5 cm. This height permitted application of pressure of about 130 mmHg. To the perfusate bottle was connected an extension tube and an injection needle (27 gauge×¾ inch) was attached to another end of the tube. […]
After the eyeballs were immobilized in a Davidson's fixative and a paraffin section was prepared at the cross-section passing through the optic papilla, it was dyed with hematoxylin and eosin (H.E.). […] The number of granule cells (GCL (ganglion cell layer), cell/mm) per 1 mm width of the optic papilla was counted by optical microscopic examination. […]

CC(C)(C)OC(=O)N1CSC[C@H]1C(=O)N[C@@H](CSCC1CCCCC1)C(=O)NC1CCN(Cc2ccccc2)CC1 [Compound of the present invention, (2R)-N-(1-Benzylpiperidin-4-yl)-3-cyclohexylmethylthio-2-((4R)-3-t-butoxycarbonylthiazolidin-4-ylcarbonylamino)propanamide]
minimum lethal dose (rats): ≥ 2000 mg/kg | The number of granule cells (GCL) ([1]; 100 mg/5 mL/kg oral one hour before 45 min ischemia, counted one week after ischemia, per 1 mm width of the optic papilla): 49.2 cell/mm | inhibiting activity to the model of retinal disorders due to transient retinal ischemia ([1]; 100 mg/kg oral one hour before ischemia, from granule cell counts of Table 1): 34%
